What was measured:
[1] = target: Serine/threonine-protein kinase WNK1 (Homo sapiens) (UniProt Q9H4A3); experiment: Inhibition of WNK1(h) at 10.0 µM in the Eurofins Kinase panel; settings: Compound concentration 10.0 uM
[2] = target: Activin receptor type-1-like (Homo sapiens) (UniProt P37023); experiment: Inhibition of ALK1(h) at 10.0 µM in the Eurofins Kinase panel; settings: Compound concentration 10.0 uM
[3] = target: Serine/threonine-protein kinase MRCK beta (Homo sapiens) (UniProt Q9Y5S2); experiment: Inhibition of MRCKbeta(h) at 10.0 µM in the Eurofins Kinase panel; settings: Compound concentration 10.0 uM
[4] = target: Serine-protein kinase ATM (Homo sapiens) (UniProt Q13315); experiment: Inhibition of ATM(h) at 10.0 µM in the Eurofins Kinase panel; settings: Compound concentration 10.0 uM
[5] = target: Serine/threonine-protein kinase Nek1 (Homo sapiens) (UniProt Q96PY6); experiment: Inhibition of NEK1(h) at 10.0 µM in the Eurofins Kinase panel; settings: Compound concentration 10.0 uM
[6] = target: Epidermal growth factor receptor (Homo sapiens) (UniProt P00533); experiment: Inhibition of EGFR(h) at 10.0 µM in the Eurofins Kinase panel; settings: Compound concentration 10.0 uM
Sequence of Epidermal growth factor receptor (Homo sapiens) (P00533 whole entry): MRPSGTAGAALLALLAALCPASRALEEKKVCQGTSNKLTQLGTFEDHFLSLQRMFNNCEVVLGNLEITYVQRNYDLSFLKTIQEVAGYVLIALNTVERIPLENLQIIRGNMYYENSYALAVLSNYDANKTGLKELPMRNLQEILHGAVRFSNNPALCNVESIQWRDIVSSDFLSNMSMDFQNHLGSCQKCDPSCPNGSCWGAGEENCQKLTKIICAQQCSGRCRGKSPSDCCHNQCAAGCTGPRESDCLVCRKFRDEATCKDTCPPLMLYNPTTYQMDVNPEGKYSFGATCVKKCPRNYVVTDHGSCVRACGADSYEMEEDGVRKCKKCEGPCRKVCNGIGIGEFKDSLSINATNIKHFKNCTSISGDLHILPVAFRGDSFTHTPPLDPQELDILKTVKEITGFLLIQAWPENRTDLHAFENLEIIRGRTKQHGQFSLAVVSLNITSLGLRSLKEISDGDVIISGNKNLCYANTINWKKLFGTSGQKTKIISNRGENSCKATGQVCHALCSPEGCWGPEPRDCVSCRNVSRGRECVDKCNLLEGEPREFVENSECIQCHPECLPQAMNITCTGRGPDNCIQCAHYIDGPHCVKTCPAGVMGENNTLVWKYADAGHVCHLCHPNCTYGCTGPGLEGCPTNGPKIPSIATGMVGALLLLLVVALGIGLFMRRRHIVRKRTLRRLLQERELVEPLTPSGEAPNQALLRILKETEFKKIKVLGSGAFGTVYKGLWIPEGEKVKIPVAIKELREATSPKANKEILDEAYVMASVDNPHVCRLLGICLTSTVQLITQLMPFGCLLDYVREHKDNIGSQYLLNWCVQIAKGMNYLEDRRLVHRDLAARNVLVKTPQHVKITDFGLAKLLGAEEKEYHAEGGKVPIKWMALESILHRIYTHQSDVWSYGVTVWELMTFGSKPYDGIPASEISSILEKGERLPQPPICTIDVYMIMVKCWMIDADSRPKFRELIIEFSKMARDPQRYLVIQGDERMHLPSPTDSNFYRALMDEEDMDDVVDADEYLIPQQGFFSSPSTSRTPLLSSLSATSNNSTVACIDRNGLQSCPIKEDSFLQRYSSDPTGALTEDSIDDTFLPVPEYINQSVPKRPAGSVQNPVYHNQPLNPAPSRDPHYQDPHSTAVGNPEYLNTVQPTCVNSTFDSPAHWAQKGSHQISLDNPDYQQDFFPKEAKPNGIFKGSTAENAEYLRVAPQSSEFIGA

[7] = target: Mitogen-activated protein kinase kinase kinase 9 (Homo sapiens) (UniProt P80192); experiment: Inhibition of MLK1(h) at 10.0 µM in the Eurofins Kinase panel; settings: Compound concentration 10.0 uM
Sequence of Mitogen-activated protein kinase kinase kinase 9 (Homo sapiens) (P80192 whole entry, looked up): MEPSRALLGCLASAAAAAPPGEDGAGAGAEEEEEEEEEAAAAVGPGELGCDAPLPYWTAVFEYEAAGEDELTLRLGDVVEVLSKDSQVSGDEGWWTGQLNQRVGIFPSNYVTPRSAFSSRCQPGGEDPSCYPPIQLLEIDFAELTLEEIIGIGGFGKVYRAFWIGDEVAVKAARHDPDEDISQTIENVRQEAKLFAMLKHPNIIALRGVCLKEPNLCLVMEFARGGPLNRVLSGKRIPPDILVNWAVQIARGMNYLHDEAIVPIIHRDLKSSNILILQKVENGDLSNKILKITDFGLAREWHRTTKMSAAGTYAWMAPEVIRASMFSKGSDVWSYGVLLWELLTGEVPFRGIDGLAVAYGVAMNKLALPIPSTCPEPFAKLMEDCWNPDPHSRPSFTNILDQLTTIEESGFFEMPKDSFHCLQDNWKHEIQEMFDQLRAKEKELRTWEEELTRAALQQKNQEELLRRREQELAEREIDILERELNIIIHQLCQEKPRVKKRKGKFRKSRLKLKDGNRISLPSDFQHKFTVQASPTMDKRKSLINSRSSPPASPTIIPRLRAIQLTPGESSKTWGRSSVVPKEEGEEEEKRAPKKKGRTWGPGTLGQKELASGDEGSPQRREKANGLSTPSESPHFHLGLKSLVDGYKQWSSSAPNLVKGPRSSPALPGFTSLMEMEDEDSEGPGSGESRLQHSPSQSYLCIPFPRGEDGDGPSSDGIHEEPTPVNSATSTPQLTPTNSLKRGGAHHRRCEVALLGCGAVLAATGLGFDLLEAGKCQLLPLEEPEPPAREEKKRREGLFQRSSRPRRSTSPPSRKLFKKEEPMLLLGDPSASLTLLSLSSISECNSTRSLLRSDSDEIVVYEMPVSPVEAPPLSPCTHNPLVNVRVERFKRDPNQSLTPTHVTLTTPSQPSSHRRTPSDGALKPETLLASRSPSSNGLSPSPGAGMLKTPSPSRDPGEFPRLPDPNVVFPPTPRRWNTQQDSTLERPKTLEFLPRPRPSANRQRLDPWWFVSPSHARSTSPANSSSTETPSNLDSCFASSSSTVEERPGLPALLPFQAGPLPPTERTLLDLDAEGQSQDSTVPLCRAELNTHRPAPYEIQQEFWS

[8] = target: Serine/threonine-protein kinase PLK3 (Homo sapiens) (UniProt Q9H4B4); experiment: Inhibition of Plk3(h) at 10.0 µM in the Eurofins Kinase panel; settings: Compound concentration 10.0 uM
[9] = target: Serine/threonine-protein kinase N2 (Homo sapiens) (UniProt Q16513); experiment: Inhibition of PRK2(h) at 10.0 µM in the Eurofins Kinase panel; settings: Compound concentration 10.0 uM
[10] = target: Inhibitor of nuclear factor kappa-B kinase subunit epsilon (Homo sapiens) (UniProt Q14164); experiment: Inhibition of IKKepsilon(h) at 10.0 µM in the Eurofins Kinase panel; settings: Compound concentration 10.0 uM
[11] = target: MAP kinase-activated protein kinase 2 (Homo sapiens) (UniProt P49137); experiment: Inhibition of MAPK2(h) at 10.0 µM in the Eurofins Kinase panel; settings: Compound concentration 10.0 uM
Sequence of MAP kinase-activated protein kinase 2 (Homo sapiens) (P49137 whole entry, looked up): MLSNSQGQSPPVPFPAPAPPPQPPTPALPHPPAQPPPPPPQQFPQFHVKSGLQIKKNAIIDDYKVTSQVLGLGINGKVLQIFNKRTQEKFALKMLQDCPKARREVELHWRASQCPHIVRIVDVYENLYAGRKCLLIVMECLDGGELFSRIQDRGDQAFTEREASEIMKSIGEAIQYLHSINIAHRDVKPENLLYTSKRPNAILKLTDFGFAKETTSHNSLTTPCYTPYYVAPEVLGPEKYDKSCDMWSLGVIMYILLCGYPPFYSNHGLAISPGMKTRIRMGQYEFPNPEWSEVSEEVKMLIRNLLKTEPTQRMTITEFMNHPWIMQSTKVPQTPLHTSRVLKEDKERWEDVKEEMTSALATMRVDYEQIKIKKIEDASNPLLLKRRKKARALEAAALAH

[12] = target: Tyrosine-protein kinase receptor UFO (Homo sapiens) (UniProt P30530); experiment: Inhibition of Axl(h) at 10.0 µM in the Eurofins Kinase panel; settings: Compound concentration 10.0 uM
[13] = target: Tyrosine-protein kinase JAK1 (Homo sapiens) (UniProt P23458); experiment: Inhibition of JAK1(h) at 10.0 µM in the Eurofins Kinase panel; settings: Compound concentration 10.0 uM
[14] = target: Serine/threonine-protein kinase 32A (Homo sapiens) (UniProt Q8WU08); experiment: Inhibition of STK32A(h) at 10.0 µM in the Eurofins Kinase panel; settings: Compound concentration 10.0 uM
[15] = target: Tyrosine-protein kinase Fyn (Homo sapiens) (UniProt P06241); experiment: Inhibition of Fyn(h) at 10.0 µM in the Eurofins Kinase panel; settings: Compound concentration 10.0 uM
[16] = target: Serine/threonine-protein kinase/endoribonuclease IRE1 (Homo sapiens) (UniProt O75460); experiment: Inhibition of IRE1(h) at 10.0 µM in the Eurofins Kinase panel; settings: Compound concentration 10.0 uM
[17] = target: Serine/threonine-protein kinase STK11 (Homo sapiens) (UniProt Q15831); experiment: Inhibition of LKB1(h) at 10.0 µM in the Eurofins Kinase panel; settings: Compound concentration 10.0 uM
Sequence of Serine/threonine-protein kinase STK11 (Homo sapiens) (Q15831 whole entry): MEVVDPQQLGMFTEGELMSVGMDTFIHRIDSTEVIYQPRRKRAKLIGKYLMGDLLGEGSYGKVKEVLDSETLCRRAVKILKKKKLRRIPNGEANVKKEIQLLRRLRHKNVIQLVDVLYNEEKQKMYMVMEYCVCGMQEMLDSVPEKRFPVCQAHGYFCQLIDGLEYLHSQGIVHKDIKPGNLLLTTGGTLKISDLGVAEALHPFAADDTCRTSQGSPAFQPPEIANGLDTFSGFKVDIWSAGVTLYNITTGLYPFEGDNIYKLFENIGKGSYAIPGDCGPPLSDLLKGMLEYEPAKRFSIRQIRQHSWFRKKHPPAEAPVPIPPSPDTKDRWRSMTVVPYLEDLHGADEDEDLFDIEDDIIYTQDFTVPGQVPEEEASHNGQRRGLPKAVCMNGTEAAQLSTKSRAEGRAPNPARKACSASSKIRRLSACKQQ

[18] = target: Beta-3 adrenergic receptor (Homo sapiens) (UniProt P13945); settings: Compound concentration 10.0 uM
Sequence of Beta-3 adrenergic receptor (Homo sapiens) (P13945 whole entry, looked up): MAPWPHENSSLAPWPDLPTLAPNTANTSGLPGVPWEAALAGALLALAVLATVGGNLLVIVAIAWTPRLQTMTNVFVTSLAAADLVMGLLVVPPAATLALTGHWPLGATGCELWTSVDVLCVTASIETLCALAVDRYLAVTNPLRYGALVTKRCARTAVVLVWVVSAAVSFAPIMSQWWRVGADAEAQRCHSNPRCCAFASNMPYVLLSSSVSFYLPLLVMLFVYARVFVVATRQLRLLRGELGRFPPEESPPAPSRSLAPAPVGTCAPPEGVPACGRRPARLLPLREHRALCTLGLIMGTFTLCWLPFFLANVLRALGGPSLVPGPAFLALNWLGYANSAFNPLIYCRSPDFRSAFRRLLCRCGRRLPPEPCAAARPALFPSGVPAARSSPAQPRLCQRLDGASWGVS

[19] = target: PI3-kinase p110-alpha/p85-alpha (Homo sapiens) (UniProt P27986+P42336); experiment: Inhibition of PI3 Kinase (p110a/p85a)(h) at 10.0 µM in the Eurofins Kinase panel; format: protein-complex assay; settings: Compound concentration 10.0 uM
[20] = target: Sodium-dependent dopamine transporter (Homo sapiens) (UniProt Q01959); settings: Compound concentration 10.0 uM
[21] = target: Insulin receptor (Homo sapiens) (UniProt P06213); experiment: Inhibition of IR(h), activated at 10.0 µM in the Eurofins Kinase panel; settings: Compound concentration 10.0 uM
[22] = target: Histamine H3 receptor (Homo sapiens) (UniProt Q9Y5N1); settings: Compound concentration 10.0 uM
Sequence of Histamine H3 receptor (Homo sapiens) (Q9Y5N1 whole entry): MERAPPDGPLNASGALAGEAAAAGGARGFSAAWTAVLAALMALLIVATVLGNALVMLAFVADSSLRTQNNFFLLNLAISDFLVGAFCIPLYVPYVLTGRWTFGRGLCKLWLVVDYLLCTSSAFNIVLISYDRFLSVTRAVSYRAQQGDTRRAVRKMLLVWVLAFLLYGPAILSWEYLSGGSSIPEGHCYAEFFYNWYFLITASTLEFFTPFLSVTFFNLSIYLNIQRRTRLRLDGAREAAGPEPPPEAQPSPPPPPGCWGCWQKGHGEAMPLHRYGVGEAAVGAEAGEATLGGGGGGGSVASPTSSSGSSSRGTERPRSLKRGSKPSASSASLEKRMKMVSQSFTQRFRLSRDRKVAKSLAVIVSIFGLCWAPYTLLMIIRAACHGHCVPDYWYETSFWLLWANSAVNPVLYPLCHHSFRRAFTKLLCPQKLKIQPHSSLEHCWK

[23] = target: PI3-kinase p110-delta/p85-alpha (Homo sapiens) (UniProt P27986+O00329); experiment: Inhibition of PI3 Kinase (p110d/p85a)(h) at 10.0 µM in the Eurofins Kinase panel; format: protein-complex assay; settings: Compound concentration 10.0 uM
[24] = target: Type-2 angiotensin II receptor (Homo sapiens) (UniProt P50052); settings: Compound concentration 10.0 uM
[25] = target: G protein-coupled receptor kinase 4 (Homo sapiens) (UniProt P32298); experiment: Inhibition of GRK4(h) at 10.0 µM in the Eurofins Kinase panel; settings: Compound concentration 10.0 uM
[26] = target: Eukaryotic translation initiation factor 2-alpha kinase 3 (Homo sapiens) (UniProt Q9NZJ5); experiment: Inhibition of PEK(h) at 10.0 µM in the Eurofins Kinase panel; settings: Compound concentration 10.0 uM
[27] = target: Protein phosphatase 3 catalytic subunit alpha (Homo sapiens) (UniProt Q08209); experiment: Inhibition of Protein Serine/threonine Phosphatase, PPP3CA (Calcineurin, PP2B) at […] µM in the Eurofins-Panlabs enzyme assay (Eurofins_assay_188020); set-up: substrate with concentration; settings: Compound concentration 11.0 uM
[28] = target: Cholecystokinin receptor type A (Homo sapiens) (UniProt P32238); experiment: Inhibition of Cholecystokinin CCK1 (CCKA) at 10 µM in the Eurofins-Panlabs radioligand binding assay (Eurofins_assay_218020); settings: Compound concentration 10.0 uM
Caspase-1 (Homo sapiens) = Caspase-1 (Homo sapiens) (UniProt P29466); experiment: Inhibition of Peptidase, CASP1 (Caspase 1) at 10 µM in the Eurofins-Panlabs enzyme assay (Eurofins_assay_163000); settings: Compound concentration 10.0 uM
[29] = target: Melanocortin receptor 4 (Homo sapiens) (UniProt P32245); experiment: Inhibition of Melanocortin MC4 at 10 µM in the Eurofins-Panlabs radioligand binding assay (Eurofins_assay_251350); set-up: ligand concentration 0.02 nM; settings: Compound concentration 10.0 uM
[30] = target: Kappa-type opioid receptor (Homo sapiens, UniProt P41145); experiment: GPCRScan assay: inhibition of KOR; set-up: radioligand conc. used [nm] 0.6 – 1.2, parental cells stable HEK
Sequence of Kappa-type opioid receptor (P41145 whole entry): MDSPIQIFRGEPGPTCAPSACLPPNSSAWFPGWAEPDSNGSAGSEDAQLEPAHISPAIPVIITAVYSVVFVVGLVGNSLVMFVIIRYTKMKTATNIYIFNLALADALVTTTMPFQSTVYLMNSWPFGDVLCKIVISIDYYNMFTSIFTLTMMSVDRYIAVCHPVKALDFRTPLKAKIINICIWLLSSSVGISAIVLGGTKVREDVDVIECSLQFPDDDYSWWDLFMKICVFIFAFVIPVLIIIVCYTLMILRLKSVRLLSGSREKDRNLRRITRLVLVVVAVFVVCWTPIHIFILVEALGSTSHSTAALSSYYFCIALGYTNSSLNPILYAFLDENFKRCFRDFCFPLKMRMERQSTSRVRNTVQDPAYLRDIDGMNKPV

[31] = target: Gamma-aminobutyric acid type B receptor subunit 1 (Homo sapiens) (UniProt Q9UBS5); experiment: Inhibition of GABAB1A at compound concentration of 10.0 uM in the Eurofins-Panlabs radioligand binding assay (Eurofins_assay_228610); set-up: ligand concentration 4 nM; settings: Compound concentration 10.0 uM
[32] = target: Tyrosine-protein kinase Fer (Homo sapiens) (UniProt P16591); experiment: Inhibition of Fer(h) at 10.0 µM in the Eurofins Kinase panel; settings: Compound concentration 10.0 uM
[33] = target: 5-hydroxytryptamine receptor 1B (Homo sapiens) (UniProt P28222); experiment: Inhibition of Serotonin (5-Hydroxytryptamine) 5-HT1B at 10 µM in the Eurofins-Panlabs radioligand binding assay (Eurofins_assay_271200); settings: Compound concentration 10.0 uM
[34] = target: Receptor tyrosine-protein kinase erbB-2 (Homo sapiens) (UniProt P04626); experiment: Inhibition of Protein Tyrosine Kinase, ERBB2 (HER2) at 10 µM in the Eurofins-Panlabs enzyme assay (Eurofins_assay_174020); set-up: substrate with concentration; settings: Compound concentration 10.0 uM
[35] = target: Vasoactive intestinal polypeptide receptor 1 (Homo sapiens) (UniProt P32241); experiment: Inhibition of Vasoactive Intestinal Peptide VIP1 at 10 µM in the Eurofins-Panlabs radioligand binding assay (Eurofins_assay_287010); settings: Compound concentration 10.0 uM

Sequence of Activin receptor type-1-like (Homo sapiens) (P37023 whole entry): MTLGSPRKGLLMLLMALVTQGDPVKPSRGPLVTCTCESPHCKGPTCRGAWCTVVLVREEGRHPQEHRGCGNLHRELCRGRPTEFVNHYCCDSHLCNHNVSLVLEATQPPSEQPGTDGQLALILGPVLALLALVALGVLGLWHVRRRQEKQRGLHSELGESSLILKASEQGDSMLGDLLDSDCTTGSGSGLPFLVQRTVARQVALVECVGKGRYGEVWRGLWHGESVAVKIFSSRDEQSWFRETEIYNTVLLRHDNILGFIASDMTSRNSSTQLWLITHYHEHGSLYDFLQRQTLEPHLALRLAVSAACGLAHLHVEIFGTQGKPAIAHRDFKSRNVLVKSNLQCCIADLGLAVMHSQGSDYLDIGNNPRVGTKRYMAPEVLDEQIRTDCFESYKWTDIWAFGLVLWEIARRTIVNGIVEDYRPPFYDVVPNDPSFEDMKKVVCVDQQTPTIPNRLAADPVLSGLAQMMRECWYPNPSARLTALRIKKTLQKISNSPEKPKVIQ

Compound | inhibition [1] [%] | inhibition [2] [%] | inhibition [3] [%] | inhibition [4] [%] | inhibition [6] [%] | inhibition [7] [%] | inhibition [8] [%] | inhibition [9] [%] | inhibition [10] [%] | inhibition [11] [%] | inhibition [12] [%] | inhibition [13] [%] | inhibition [14] [%] | inhibition [15] [%] | inhibition [16] [%] | inhibition [17] [%] | inhibition [18] [%] | inhibition [19] [%] | inhibition [20] [%] | inhibition [21] [%] | further results
O=c1n(Cc2cncn2-c2cccc(Cl)c2)nc(-c2ccc(Cl)cc2)n1C[C@H](O)C(F)(F)F | -5.38 | -1.34 | -6.31 | -1.92 | -4.73 | -1.25 | -0.3 | 27.4 | 0.02 | 11.3 | 3.23 | 8.74 | -1.08 | 5.53 | 19.2 | 1.85 | -0.32 | -1.29 | 19 | 2.21 | inhibition [5]: 5.54%; inhibition [22]: 5.05%; inhibition [23]: -4.66%; inhibition [24]: -3%; inhibition [25]: -1.52%; inhibition [26]: -1.49%
C[C@H](O)c1nc(Cn2nc(-c3ccc(Cl)cc3)n(C[C@H](O)C(F)(F)F)c2=O)nn1-c1cccc(Cl)c1 [PECAVAPTAN] | 6.35 | -9.71 | -2.21 | 1.99 | -5.82 | 3.5 | 0.49 | 7.5 | 3.03 | 11.1 | 2.01 | -1.72 | 3.15 | -1.76 | 5.58 | -1.51 | -1.97 | -2.88 | 4 | -4.02 | inhibition [27]: 32%; inhibition [28]: 15%; inhibition (Caspase-1 (Homo sapiens)): 0%; inhibition [29]: 4%; Ki ([30]; read-out: Ki): 2170 nM; Ki ([30]; read-out: pKi (converted)): 2140 nM; inhibition [31]: -4%; inhibition [32]: -2.1%; inhibition [33]: -5%; inhibition [34]: 15%; inhibition [22]: 11.9%; inhibition [23]: -1.36%; inhibition [24]: 4%; inhibition [35]: 10%; inhibition [25]: -0.06%; inhibition [26]: 1.82%
